# Measured values taken from paper PMC12610721, “The Action of Cannabidiol on Doxycycline Cytotoxicity in Human Cells—In Vitro Study” (Molecules, 2025).
# Entries after “also recorded” stand apart in the source; their conditions may differ. Where two headings read alike, the source gives them in different places.
# Key:
# [1] = tested on: rat neuronal cell line PC12; parameters: method as in PMID 33798505; conditions: PC12, 24 h, 20 µM (10.26 µg/mL); cited from earlier work
# HepG2 cells [2] = conditions: 72 h exposure, cited from earlier work
# HepG2 cells [3] = assay: mitochondrial activity (MTT assay)
# Experimental: (§1) This innovative study evaluated the effects of cannabidiol (Cannabis sativa L.) on doxycycline-induced toxicity using three cell cultures: neural—SH-SY5Y, liver—HepG2, and kidney—HEK-293. […] A series of cytotoxicity assays included assessments of mitochondrial activity, lysosomal activity, cell membrane integrity, DNA synthesis, and cell proliferation. Based on the obtained results, IC50 values for doxycycline, both in monotherapy and in combination with CBD, were calculated, along with evaluations of ROS, death of cells, and morphology. The interaction between the drug and CBD was further analyzed by the combination index (CI).
# (§2) The metabolic activity of viable cells was assessed by measuring dehydrogenase activity. After exposing the cell cultures to the test compounds, 10 µL of MTT solution (5 mg/mL in PBS) was added to each well of a 96-well plate. After 3 h of incubation, the MTT solution was removed, and the intracellular formazan was dissolved in 100 µL of DMSO. The plate was shaken for 15 min at room temperature and transferred to a Synergy 2 Multi-Mode Microplate Reader (BioTek® Instruments Inc., Winooski, VT, USA) to measure absorbance at 570 nm, using a blank as reference. Cytotoxicity was expressed as a percentage relative to the negative control.
# (§3) To determine the types of interaction that occur when cells are exposed to combinations of DOX and CBD, the method established by Chou and Talalay was used in this study. The dose–effect relationships of the individual and combined test compounds were modeled biometrically using the Median-Effect Equation based on the Mass Action Law.fa/fu = (D/Dm)^m
# (§4) In this isobolographic analysis, the combination index (CI) is a quantitative parameter used to evaluate the type and strength of interactions between multiple compounds. For all combinations, CI values were calculated across a range of affected fractions (Fa) from 0.05 to 0.95 (corresponding to 5–95% toxicity). CI values of 0.9–1.1, <0.9, and >1.1 indicate additive, synergistic, and antagonistic effects, respectively.
# (§5) The study was conducted in three independent experiments (n = 3). […] Cytotoxicity data were analyzed using one-way analysis of variance (ANOVA), followed by Dunnett’s post hoc test to assess significance relative to the negative control. The half-maximal inhibitory concentration (IC50), representing the drug or drug–CBD mixture concentration required to inhibit cell viability by 50%, was calculated using GraphPad Prism 5.0. Statistical comparisons between IC50 values were performed using ANOVA followed by Tukey’s post hoc test. Differences were considered statistically significant at p ≤ 0.05.
# SH-SY5Y cells [4] = assay: mitochondrial activity (MTT assay); conditions: 72 h
# Experimental: as §1, §2, §3, §4, §5
# HepG2 cells [5] = tested on: HepG2 cells; parameters: method as in PMID 22116976; conditions: HepG2, 20 µM (10.3 µg/mL); inhibited mitochondrial activity, membrane damage, increased ROS; cited from earlier work
# [6] = tested on: SH-SY5Y human neuroblastoma cells; parameters: method as in PMID 33429042; conditions: 24 h, 4 ng/mL to 4.4 µg/mL; cited from earlier work
# HepG2 cells [7] = assay: DNA synthesis (BrdU assay)
# Experimental: as §1
# (§6) Cell proliferation was evaluated using the BrdU assay (Cell Proliferation ELISA, BrdU [colorimetric], Roche, Switzerland) according to the manufacturer’s instructions. Briefly, BrdU was incorporated into newly synthesized DNA in place of thymidine during cell division. Incorporated BrdU was detected using an anti-BrdU antibody conjugated with peroxidase. The enzymatic reaction product was quantified by measuring absorbance. Absorbance was measured at 370 nm and 492 nm using the Synergy 2 Multi-Mode Microplate Reader (BioTek® Instruments Inc., Winooski, VT, USA), with a blank as reference.
# as §3, §4, §5
# HEK-293 cells [8] = assay: DNA synthesis (BrdU assay); conditions: for doxycycline concentration that inhibited DNA synthesis: HEK-293, BrdU, 72 h
# Experimental: as §1, §6, §3, §4, §5
# SH-SY5Y cells [9] = assay: DNA synthesis (BrdU assay); conditions: 72 h
# Experimental: as §1, §6, §3, §4, §5
# HepG2 cells [10] = assay: proliferation, total cellular protein (TPC assay)
# Experimental: as §1
# (§7) This assay is based on staining total cellular proteins as a measure of proliferation. After incubation, the medium containing the test compounds was removed, and 100 µL of Coomassie Brilliant Blue R-250 dye was added to each well. The plate was shaken for 10 min. The dye was then removed, and the cells were rinsed twice with 100 µL of washing solution (glacial acetic acid/ethanol/water, 5:10:85, v/v/v). Next, 100 µL of desorbing solution (1 M potassium acetate) was added, and the plate was shaken again for 10 min. Absorbance was measured at 595 nm using the Synergy 2 Multi-Mode Microplate Reader (BioTek® Instruments Inc., Winooski, VT, USA), with a blank as reference. Cytotoxicity was expressed as a percentage relative to the negative control.
# as §3, §4, §5
# HEK-293 cells [11] = assay: proliferation, total cellular protein (TPC assay)
# Experimental: as §1, §7, §3, §4, §5
# SH-SY5Y cells [12] = assay: proliferation, total cellular protein (TPC assay); conditions: 72 h
# Experimental: as §1, §7, §3, §4, §5
# HEK-293 cells [13] = assay: apoptosis and necrosis (Hoechst 33342 + propidium iodide staining); format: cell-based, human; conditions: HEK-293, 72 h
# Experimental: The type and extent of cell death in the control and treated cultures were evaluated using fluorochrome staining with Hoechst 33342 and propidium iodide to assess apoptosis and necrosis [88]. Dead cells were analyzed morphologically using a fluorescence microscope (Axiovert 200 M, Zeiss, Oberkochen, Germany). Cells with pink, fluorescent nuclei were considered necrotic, whereas cells with blue, fluorescent nuclei (fragmented and/or condensed chromatin) were classified as apoptotic.
# HEK-293 cells [14] = tested on: HEK-293 cells; parameters: method as in earlier work; conditions: cited from earlier work; for IC50: HEK-293, 48 h of exposure
compound,measurement,setting,value
"C[C@H]1c2cccc(O)c2C(=O)C2=C(O)[C@]3(O)C(=O)C(C(N)=O)=C(O)[C@@H](N(C)C)[C@@H]3[C@@H](O)[C@@H]21 [DOX, doxycycline hyclate]",neurotoxicity,[1],no signs of neurotoxicity
same,IC50 of mitochondrial inhibition,HepG2 cells [2]; converted value in brackets,10.3 mg/L
same,IC50,HepG2 cells [2]; read-out: IC50 of mitochondrial inhibition,20 µM
same,doxycycline concentration that impaired mitochondrial function,"HepG2 cells [3]; HepG2, MTT, 72 h",50 µg/mL
same,IC50,"HepG2 cells [3]; Homo sapiens, HepG2, 72 h",> 200 mg/L
same,IC50,SH-SY5Y cells [4]; Homo sapiens,9.8 ± 0.9 mg/L
same,doxycycline concentration from which mitochondrial activity was inhibited,"SH-SY5Y cells [4]; MTT, p ≤ 0.05 vs negative control",6.25 µg/mL
same,effect on cell viability,HepG2 cells [5],reduced cell viability
same,effect on production of reactive oxygen species (ROS),[6],protective effect
same,doxycycline concentration that inhibited DNA synthesis,"HepG2 cells [7]; HepG2, BrdU, 72 h",12.5 µg/mL
same,IC50,"HepG2 cells [7]; Homo sapiens, HepG2, 72 h",24 ± 0.4 mg/L
same,doxycycline concentration that inhibited DNA synthesis,HEK-293 cells [8],3.12 µg/mL
same,doxycycline concentration that inhibited DNA synthesis,HEK-293 cells [8]; listed as doxycycline,3.125 µg/mL
same,IC50,"HEK-293 cells [8]; Homo sapiens, HEK293, 72 h",8.9 ± 0.1 mg/L
same,doxycycline concentration that inhibited DNA synthesis,SH-SY5Y cells [9]; BrdU,12.5 µg/mL
same,IC50,SH-SY5Y cells [9]; Homo sapiens,15.6 ± 0.7 mg/L
same,doxycycline concentration that reduced cell proliferation,"HepG2 cells [10]; HepG2, TPC, 72 h",50 µg/mL
same,IC50,"HepG2 cells [10]; Homo sapiens, HepG2, 72 h",> 200 mg/L
same,doxycycline concentration that inhibited cell proliferation,"HEK-293 cells [11]; HEK-293, TPC, 72 h",12.5 µg/mL
same,IC50,"HEK-293 cells [11]; Homo sapiens, HEK293, 72 h",14.8 ± 1.3 mg/L
same,IC50,SH-SY5Y cells [12]; Homo sapiens,> 200 mg/L
same,doxycycline concentration at which cell proliferation decreased,SH-SY5Y cells [12]; TPC,50 µg/mL
same,apoptotic and necrotic cell fractions,HEK-293 cells [13],increased apoptotic and necrotic cell fractions; also recorded: significant increase in apoptotic and necrotic cells
same,effect on cell viability,"HEK-293 cells [14]; HEK-293, 20 µg/mL",reduces the viability
same,induction of apoptosis,"HEK-293 cells [14]; HEK-293, 20 µg/mL",does not induce apoptosis
same,IC50,HEK-293 cells [14]; converted value in brackets,6.05 mg/L
same,IC50,HEK-293 cells [14]; read-out: IC50,11.8 µM
